Measurements as given in BindingDB's records for doi:10.3109/14756366.2012.709242 (Anadolu University, 2013).

Legend:
Acetylcholinesterase = Acetylcholinesterase (Electrophorus electricus, UniProt O42275); assay: Enzymatic Assay; conditions: pH 8; 25 °C
Description: (§1) AChE or BChE solution (50 μL) and compound solution (50 μL), which is prepared in 2% DMSO at a concentration range of 10^−1-10^−6 mM, were added to 3.0 mL phosphate buffer (pH8 ± 0.1) and incubated at 25°C for 5 min. The reaction was started by adding (DTNB) (50 μL) and ATC (10 μL) to the enzyme-inhibitor mixture. […] As a control, an identical solution of the enzyme without the inhibitor was processed following the same protocol. The blank reading contained 3.0 mL buffer, 50 μL 2% DMSO, 50 μL DTNB and 10 μL substrate. All processes were assayed in triplicate.

[1] = target: Carboxylic ester hydrolase (Equus caballus, UniProt Q9N1N9); assay: Enzymatic Assay
Description: as §1

Sequence of Acetylcholinesterase (O42275 whole entry): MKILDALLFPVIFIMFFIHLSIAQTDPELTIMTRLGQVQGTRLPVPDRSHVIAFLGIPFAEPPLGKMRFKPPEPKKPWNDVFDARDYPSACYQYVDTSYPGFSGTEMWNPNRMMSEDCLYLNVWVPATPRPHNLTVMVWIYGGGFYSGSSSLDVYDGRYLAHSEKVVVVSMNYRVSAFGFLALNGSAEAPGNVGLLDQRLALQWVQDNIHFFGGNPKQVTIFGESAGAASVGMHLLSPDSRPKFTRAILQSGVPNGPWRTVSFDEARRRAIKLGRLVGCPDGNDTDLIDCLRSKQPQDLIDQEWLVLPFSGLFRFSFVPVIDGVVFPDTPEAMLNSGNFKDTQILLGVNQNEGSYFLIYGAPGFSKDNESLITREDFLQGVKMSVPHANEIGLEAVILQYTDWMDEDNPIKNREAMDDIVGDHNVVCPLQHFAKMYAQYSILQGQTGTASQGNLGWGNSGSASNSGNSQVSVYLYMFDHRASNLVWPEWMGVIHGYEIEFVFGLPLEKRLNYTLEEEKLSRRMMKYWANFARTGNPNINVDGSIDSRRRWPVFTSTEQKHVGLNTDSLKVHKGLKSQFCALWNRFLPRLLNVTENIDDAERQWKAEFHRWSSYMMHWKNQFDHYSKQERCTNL
Sequence of Carboxylic ester hydrolase (Q9N1N9 whole entry): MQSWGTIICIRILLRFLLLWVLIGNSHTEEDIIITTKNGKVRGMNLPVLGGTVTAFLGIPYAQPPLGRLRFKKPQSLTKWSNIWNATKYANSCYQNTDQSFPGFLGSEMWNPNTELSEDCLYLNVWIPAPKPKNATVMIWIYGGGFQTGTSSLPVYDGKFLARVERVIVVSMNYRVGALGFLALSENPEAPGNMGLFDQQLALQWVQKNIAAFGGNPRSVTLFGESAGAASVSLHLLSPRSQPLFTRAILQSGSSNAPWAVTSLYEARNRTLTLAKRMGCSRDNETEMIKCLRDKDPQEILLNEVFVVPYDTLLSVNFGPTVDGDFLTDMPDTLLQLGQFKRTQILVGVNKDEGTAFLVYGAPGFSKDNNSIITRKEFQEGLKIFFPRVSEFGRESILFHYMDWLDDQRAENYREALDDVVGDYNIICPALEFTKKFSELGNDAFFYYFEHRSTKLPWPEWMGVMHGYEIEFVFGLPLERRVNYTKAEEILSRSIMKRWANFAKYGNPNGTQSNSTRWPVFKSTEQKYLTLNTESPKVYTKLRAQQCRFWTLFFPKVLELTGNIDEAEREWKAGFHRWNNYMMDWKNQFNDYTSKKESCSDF

Compound | IC50 (Acetylcholinesterase) [µM] | IC50 [1] [µM]
Cc1nc(-c2ccc(NC(=O)CN3CCN(c4ccc([N+](=O)[O-])cc4)CC3)cc2)cs1 [2-[4-(4-Nitrophenyl)piperazine-1-yl]-N-[4-(2-methylthiazol-4-yl)pheny]acetamide (5i)] | > 100 | > 100
Cc1nc(-c2ccc(NC(=O)CN3CCN(C(=O)c4ccco4)CC3)cc2)cs1 [2-[4-(2-Furoyl)piperazine-1-yl]-N-[4-(2-methylthiazol-4-yl)phenyl]acetamide (5p)] | 0.27 | > 100
COc1ccc(N2CCN(CC(=O)Nc3ccc(-c4csc(C)n4)cc3)CC2)cc1 [2-[4-(4-Methoxyphenyl)piperazine-1-yl]-N-[4-(2-methylthiazol-4-yl)phenyl]acetamide (5f)] | > 100 | > 100
Cc1nc(-c2ccc(NC(=O)CN3CCN(c4ccc(Cl)cc4)CC3)cc2)cs1 [2-[4-(4-Chlorophenyl)piperazine-1-yl]-N-[4-(2-methylthiazol-4-yl)phenyl]acetamide (5g)] | > 100 | > 100
Cc1nc(-c2ccc(NC(=O)CN3CCN(C4CCCCC4)CC3)cc2)cs1 [2-(4-Cyclohexylpiperazine-1-yl)-N-[4-(2-methylthiazol-4-yl)pheny])acetamide (5c)] | 6.34 | > 100
Cc1nc(-c2ccc(NC(=O)CN3CCN(c4ccccc4C)CC3)cc2)cs1 [2-[4-(2-Methylphenyl)piperazine-1-yl]-N-[4-(2-methylthiazol-4-yl)pheny]acetamide (5l)] | > 100 | > 100
Cc1nc(-c2ccc(NC(=O)CN3CCN(c4ccccn4)CC3)cc2)cs1 [2-[4-(2-Pyridyl)piperazine-1-yl]-N-[4-(2-methylthiazol-4-yl)phenyl]acetamide (5n)] | 0.051 | > 100
Cc1cccc(N2CCN(CC(=O)Nc3ccc(-c4csc(C)n4)cc3)CC2)c1 [2-[4-(3-Methylphenyl)piperazine-1-yl]-N-[4-(2-methylthiazol-4-yl)phenyl]acetamide (5j)] | 88.4 | > 100
Cc1nc(-c2ccc(NC(=O)CN3CCN(Cc4ccccc4)CC3)cc2)cs1 [2-[4-(2-Benzyl)piperazine-1-yl]-N-[4-(2-methylthiazol-4-yl)phenyl]acetamide (5o)] | 0.011 | > 100
COc1cccc(N2CCN(CC(=O)Nc3ccc(-c4csc(C)n4)cc3)CC2)c1 [2-[4-(3-Methoxyphenyl)piperazine-1-yl]-N-[4-(2-methylthiazol-4-yl)phenyl]acetamide (5k)] | > 100 | > 100
COc1ccccc1N1CCN(CC(=O)Nc2ccc(-c3csc(C)n3)cc2)CC1 [2-[4-(2-Methoxyphenyl)piperazine-1-yl]-N-[4-(2-methylthiazol-4-yl)phenyl]acetamide (5m)] | 8.42 | > 100
CCN1CCN(CC(=O)Nc2ccc(-c3csc(C)n3)cc2)CC1 [2-(4-Ethylpiperazine-1-yl)-N-[4-(2-methylthiazol-4-yl)pheny])acetamide (5b)] | 11.7 | > 100
Cc1nc(-c2ccc(NC(=O)CN3CCN(c4ccc(F)cc4)CC3)cc2)cs1 [2-[4-(4-Florophenyl)piperazine-1-yl]-4-[4-(2-methylthiazol-4-yl)phenyl]acetamide (5h)] | > 100 | > 100
Cc1nc(-c2ccc(NC(=O)CN3CCN(c4ccccc4)CC3)cc2)cs1 [2-(4-Phenylpiperazine-1-yl)-N-[4-(2-methylthiazol-4-yl)phenyl]acetamide (5d)] | > 100 | > 100
Cc1ccc(N2CCN(CC(=O)Nc3ccc(-c4csc(C)n4)cc3)CC2)cc1 [2-[4-(4-Methylphenyl)piperazine-1-yl]-N-[4-(2-methylthiazol-4-yl)phenyl]acetamide (5e)] | > 100 | > 100
Cc1nc(-c2ccc(NC(=O)CN3CCN(C)CC3)cc2)cs1 [2-(4-Methylpiperazine-1-yl)-N-[4-(2-methylthiazol-4-yl)phenyl]acetamide (5a)] | 7.12 | > 100
